Test results as given in ChEMBL document CHEMBL1149864, “Benzofused N-substituted cyclic enediynes: activation and DNA-cleavage potential” (Bioorg Med Chem, 2008).
Activity calls are given as the source filed them. No cut-off for these calls is given here.

Legend:
Escherichia coli [1] = assay: Induction of Escherichia coli pBR322 DNA cleavage assessed as generation of form 3 at 20 uM at pH 8.0 after 48 hrs
Escherichia coli [2] = assay: Induction of Escherichia coli pBR322 DNA cleavage assessed as generation of form 3 at 20 uM at pH 8.0 after 24 hrs
[3] = Chemical stability assessed as half life at 70 degC; type: physicochemical
Escherichia coli [4] = assay: Induction of Escherichia coli pBR322 DNA cleavage at 0.4 uM at pH 7.5 after 24 hrs
Escherichia coli [5] = assay: Induction of Escherichia coli pBR322 DNA cleavage at 0.4 uM at pH 8.0 after 24 hrs
Escherichia coli [6] = assay: Induction of Escherichia coli pBluescript SK+ DNA cleavage assessed as generation of form 3 at 20 uM at pH 8.0 after 48 hrs
Escherichia coli [7] = assay: Induction of Escherichia coli pBR322 DNA cleavage at 0.4 uM at pH 8.5 after 24 hrs
[8] = Chemical stability assessed as half life at 50 degC; type: physicochemical
[9] = Chemical stability assessed as half life at 30 degC; type: physicochemical
Escherichia coli [10] = assay: Induction of Escherichia coli pBluescript SK+ DNA cleavage assessed as generation of form 3 at 20 uM at pH 8.0 after 12 hrs
Escherichia coli [11] = assay: Induction of Escherichia coli pBR322 DNA cleavage assessed as generation of form 3 at 20 uM at pH 8.0 after 12 hrs
[12] = Chemical stability assessed as half life at 60 degC; type: physicochemical

O=[N+]([O-])c1ccc2c(c1)C#CCCNCC#C2
Activity (Escherichia coli [1]): Active
Activity (Escherichia coli [2]): Active

Cc1ccc(S(=O)(=O)N2CC#Cc3ccccc3C#CCC2)cc1
half-life [3]: 48 h

O=[N+]([O-])c1ccc(S(=O)(=O)N2CC#Cc3cc([N+](=O)[O-])c([N+](=O)[O-])cc3C#CCC2)cc1
half-life [3]: 9.5 h

C1#Cc2ccccc2C#CCNCC1.Cc1ccc(S(=O)(=O)O)cc1
Activity (Escherichia coli [4]): Active
Activity (Escherichia coli [5]): Active
Activity (Escherichia coli [6]): inactive
Activity (Escherichia coli [7]): Active
half-life [8]: 130 h
half-life [9]: 770 h
Activity (Escherichia coli [10]): inactive
Activity (Escherichia coli [2]): Active
Activity (Escherichia coli [11]): Active

O=[N+]([O-])c1ccc(S(=O)(=O)N2CC#Cc3ccc([N+](=O)[O-])cc3C#CCC2)cc1
half-life [12]: 138 h
half-life [3]: 12 h
